According to publication PMC11288027, “Exploring novel microbial metabolites and drugs for inhibiting Clostridioides difficile” (mSphere, 2024):
≈ marks a conversion by molar mass, not a printed value. Where “and” joins values, the source holds several entries; their conditions need not be identical. Equal entries are not always repeated. Where two headings read alike, the source gives them in different places.

Experiments:
[1] = tested on: C. difficile clinical isolates; assay: MIC against a panel of 20 C. difficile clinical isolates (broth microdilution); assay type: cell-based, Clostridioides difficile; details: Clostridioides difficile; for MIC50: concentration that inhibited 50% of the 20 C. difficile clinical isolates, read-out: MIC50; for MIC: read-out: minimum inhibitory concentration (MIC); for MIC90: concentration that inhibited 90% of the 20 C. difficile clinical isolates, read-out: MIC90
[2] = tested on: B. fragilis; assay: MIC against human gut microbiota; assay type: cell-based, Bacteroides fragilis; details: Bacteroides fragilis, anaerobic, read-out: minimum inhibitory concentration (MIC)
[3] = tested on: B. dorei; assay: MIC against human gut microbiota; assay type: cell-based, Bacteroides dorei; details: Phocaeicola dorei; B. dorei HM- 719, BHIS broth, anaerobic; read-out: minimum inhibitory concentration (MIC)
[4] = tested on: Bif. breve; assay: MIC against human gut microbiota; assay type: cell-based, Bifidobacterium breve; details: Bifidobacterium breve, ATCC15700; Bif. breve ATCC 15700, BHIS broth, anaerobic; read-out: minimum inhibitory concentration (MIC)
[5] = tested on: Bif. angulatum; assay: MIC against human gut microbiota; assay type: cell-based, Bifidobacterium angulatum; details: Bifidobacterium angulatum; Bif. angulatum HM- 1189, BHIS broth, anaerobic; read-out: minimum inhibitory concentration (MIC)
[6] = tested on: Bif. adolescentis; assay: MIC against human gut microbiota; assay type: cell-based, Bifidobacterium adolescentis; details: Bifidobacterium adolescentis; Bif. adolescentis HM- 633, BHIS broth, anaerobic; read-out: minimum inhibitory concentration (MIC)
[7] = tested on: Bif. longum; assay: MIC against human gut microbiota; assay type: cell-based, Bifidobacterium longum; details: Bifidobacterium longum, anaerobic, read-out: minimum inhibitory concentration (MIC)
[8] = tested on: E. faecium; assay: MIC against human gut microbiota; assay type: cell-based, Enterococcus faecium; details: Enterococcus faecium; E. faecium HM-202, TSB, aerobic; read-out: minimum inhibitory concentration (MIC)
[9] = tested on: E. fecalis; assay: MIC against human gut microbiota; assay type: cell-based, Enterococcus faecalis; details: Enterococcus faecalis; E. fecalis HM-970, TSB, aerobic; read-out: minimum inhibitory concentration (MIC)
[10] = tested on: L. casei; assay: MIC against human gut microbiota; assay type: cell-based; details: Lacticaseibacillus casei, ATCC334; L. casei ATCC 334, MRS broth, 5% CO2; read-out: minimum inhibitory concentration (MIC)
[11] = tested on: L. brevis; assay: MIC against human gut microbiota; assay type: cell-based, Lactobacillus brevis; details: Levilactobacillus brevis, ATCC14864; L. brevis ATCC-14864, MRS broth, 5% CO2; read-out: minimum inhibitory concentration (MIC)
[12] = tested on: L. rhamanosus; assay: MIC against human gut microbiota; assay type: cell-based, Lactobacillus rhamnoosus; details: Lactobacillus, ATCC53103; L. rhamanosus ATCC-53103, MRS broth, 5% CO2; read-out: minimum inhibitory concentration (MIC)
[13] = tested on: C. difficile ATCC BAA-1870; assay: MIC of active hits by broth microdilution; details: C. difficile ATCC BAA-1870, 48 h anaerobic; for MIC: Clostridioides difficile, ATCCBAA1870, 48 h
[14] = tested on: C. difficile ATCC BAA-1870; assay: Time-kill assay at 5 × MIC; details: C. difficile ATCC BAA-1870, ~10^6 CFU/mL, up to 24 h
[15] = ATCC43255, C. difficile ATCC 43255
[16] = ATCCBAA1870, C. difficile ATCC BAA-1870 (Ribotype-027), purchased compounds, panel test
[17] = C. difficile CD-1 (Ribotype-027)
[18] = C. difficile CD-6 (Ribotype-027)
[19] = C. difficile CD-10(Ribotype-027)
[20] = C. difficile CD-26 (Ribotype-027)
[21] = C. difficile CD-29 (Ribotype-027)
[22] = B. fragilis HM- 709, BHIS broth
[23] = B. fragilis HM- 718, BHIS broth
[24] = Bif. longum HM- 845, BHIS broth
[25] = Bif. longum HM- 846, BHIS broth
[26] = Bif. longum HM- 847, BHIS broth
[27] = Bif. longum HM- 848, BHIS broth

| MIC50 ([1]; 48 h) [µg/mL] | MIC ([1]; ATCC630, C. difficile ATCC 630) [µg/mL] | MIC [1, 15] [µg/mL] | MIC [1, 16] [µg/mL] | MIC [1, 17] [µg/mL] | MIC [1, 18] [µg/mL] | MIC [1, 19] [µg/mL] | MIC ([1]; C. difficile CD-12) [µg/mL] | MIC ([1]; C. difficile CD-13) [µg/mL] | MIC ([1]; C. difficile CD-15) [µg/mL] | MIC ([1]; C. difficile CD-22) [µg/mL] | MIC ([1]; C. difficile CD-23) [µg/mL] | MIC ([1]; C. difficile CD-24) [µg/mL] | MIC [1, 20] [µg/mL] | MIC ([1]; C. difficile CD-28) [µg/mL] | MIC [1, 21] [µg/mL] | MIC ([1]; C. difficile CD-30) [µg/mL] | MIC ([1]; C. difficile NR-49302) [µg/mL] | MIC ([1]; C. difficile NR-49304) [µg/mL] | MIC [13] | Compound | also measured |
| --- | --- | --- | --- | --- | --- | --- | --- | --- | --- | --- | --- | --- | --- | --- | --- | --- | --- | --- | --- | --- | --- |
| 0.125 (≈ 0.548 µM) | 0.25 (≈ 1.1 µM) | 0.06 (≈ 0.263 µM) | 0.125 (≈ 0.548 µM) | 0.125 (≈ 0.548 µM) | 0.125 (≈ 0.548 µM) | 0.125 (≈ 0.548 µM) | 0.25 (≈ 1.1 µM) | 0.25 (≈ 1.1 µM) | 0.125 (≈ 0.548 µM) | 0.125 (≈ 0.548 µM) | 0.125 (≈ 0.548 µM) | 0.06 (≈ 0.263 µM) | 0.125 (≈ 0.548 µM) | 0.125 (≈ 0.548 µM) | 0.06 (≈ 0.263 µM) | 0.5 (≈ 2.19 µM) | 0.125 (≈ 0.548 µM) | 0.06 (≈ 0.263 µM) | 0.91 µg/mL | Cc1ccc2c(Cl)cc(Cl)c(O)c2n1 [Chlorquinaldol] | MIC ([1]; C. difficile NR-49308): 0.06 µg/mL (≈ 0.263 µM); MIC ([1]; C. difficile NR-49319): 0.06 µg/mL (≈ 0.263 µM); MIC50 [1]: 0.125 µg/mL (≈ 0.548 µM); MIC90 [1]: 0.25 µg/mL (≈ 1.1 µM); MIC [2, 22]: ≤ 2 µg/mL; MIC [2, 23]: ≤ 2 µg/mL; MIC [3]: ≤ 2 µg/mL; MIC [4]: > 256 µg/mL; MIC [5]: 32 µg/mL (≈ 140 µM); MIC [6]: 32 µg/mL (≈ 140 µM); MIC [7, 24]: 128 µg/mL (≈ 561 µM); MIC [7, 25]: 32 µg/mL (≈ 140 µM); MIC [7, 26]: 64 µg/mL (≈ 281 µM); MIC [7, 27]: 64 µg/mL (≈ 281 µM); MIC [8]: > 256 µg/mL; MIC [9]: 128 µg/mL (≈ 561 µM); MIC [10]: > 256 µg/mL; MIC [11]: > 256 µg/mL; MIC [12]: > 256 µg/mL; MIC (μM) [13]: 2 µM |
| 0.015 (≈ 0.0142 µM) | ≤ 0.0078 | 0.03 (≈ 0.0284 µM) | ≤ 0.0078 | 0.06 (≈ 0.0567 µM) | 0.06 (≈ 0.0567 µM) | 0.03 (≈ 0.0284 µM) | 0.03 (≈ 0.0284 µM) | ≤ 0.0078 | 0.015 (≈ 0.0142 µM) | ≤ 0.0078 | 0.06 (≈ 0.0567 µM) | ≤ 0.0078 | 0.06 (≈ 0.0567 µM) | 0.015 (≈ 0.0142 µM) | ≤ 0.0078 | 0.015 (≈ 0.0142 µM) | 0.03 (≈ 0.0284 µM) | ≤ 0.0078 | ≤ 0.0078 µg/mL | CCc1c(Cl)c(O)c(Cl)c(O)c1C(=O)O[C@H]1[C@H](O)[C@H](OC)[C@H](OC/C2=C\C=C\C[C@H](O)/C(C)=C/[C@H](CC)[C@@H](O[C@@H]3OC(C)(C)[C@@H](OC(=O)C(C)C)[C@H](O)[C@@H]3O)/C(C)=C/C(C)=C/C[C@@H]([C@@H](C)O)OC2=O)O[C@@H]1C [Fidaxomicin] | MIC ([1]; C. difficile NR-49308): ≤ 0.0078 µg/mL; MIC ([1]; C. difficile NR-49319): 0.03 µg/mL (≈ 0.0284 µM); MIC50 [1]: 0.015 µg/mL (≈ 0.0142 µM); MIC90 [1]: 0.06 µg/mL (≈ 0.0567 µM); MIC [2, 22]: > 256 µg/mL; MIC [2, 23]: > 256 µg/mL; MIC [3]: > 256 µg/mL; MIC [4]: ≤ 2 µg/mL; MIC [5]: ≤ 2 µg/mL; MIC [6]: ≤ 2 µg/mL; MIC [7, 24]: ≤ 2 µg/mL; MIC [7, 25]: ≤ 2 µg/mL; MIC [7, 26]: ≤ 2 µg/mL; MIC [7, 27]: ≤ 2 µg/mL; MIC [8]: ≤ 2 µg/mL; MIC [9]: ≤ 2 µg/mL; MIC [10]: 8 µg/mL (≈ 7.56 µM); MIC [11]: 64 µg/mL (≈ 60.5 µM); MIC [12]: 8 µg/mL (≈ 7.56 µM); time to eliminate / clear C. difficile [14]: ≤ 24 h |
|  |  |  |  |  |  |  |  |  |  |  |  |  |  |  |  |  |  |  | 16 µM and 14.5 µg/mL | Cc1cc(SCc2sc(-c3ccc(C(F)(F)F)cc3)nc2C)ccc1OCC(=O)O [GW 501516] |  |
